Reference: ChEMBL document CHEMBL1671637, “Development, stability, and molecular mechanisms of macrolide resistance in Campylobacter jejuni” (2008)
In brackets after ≈: the same amount, converted by molar mass.

Legend:
[1] = system: Campylobacter jejuni; assay: Antimicrobial activity against Campylobacter jejuni DC6 infected in 3 days old chicken by agar dilution method; assay type: functional
[2] = system: Campylobacter jejuni; assay: Antimicrobial activity against Campylobacter jejuni DC23 harboring protein L4 G74D mutant by agar dilution method; assay type: functional
[3] = system: Campylobacter jejuni; assay: Antimicrobial activity against Campylobacter jejuni NCTC 11168 by agar dilution method; assay type: functional
[4] = system: Campylobacter jejuni; assay: Antimicrobial activity against Campylobacter jejuni DC34 harboring protein L4 G74D mutant by agar dilution method; assay type: functional
[5] = system: Campylobacter jejuni; assay: Antimicrobial activity against Campylobacter jejuni JL285 selected at 4 to 16 times MIC after 3 to 4 days by agar dilution method; assay type: functional
[6] = system: Campylobacter jejuni; assay: Antimicrobial activity against Campylobacter jejuni DC13 harboring protein L4 G74D mutant by agar dilution method; assay type: functional
[7] = system: Campylobacter jejuni; assay: Antimicrobial activity against Campylobacter jejuni JL303 harboring protein L22 with insertion of amino acid TSH at position 98 selected at 4 to 16 times MIC after 3 to 4 days by agar dilution method; assay type: functional
[8] = system: Campylobacter jejuni; assay: Antimicrobial activity against Campylobacter jejuni DC14 harboring protein L4 G57D mutant by agar dilution method
[9] = system: Campylobacter jejuni; assay: Antimicrobial activity against Campylobacter jejuni JL289 harboring 23S rRNA A2074C mutant selected at 4 to 16 times MIC after 3 to 4 days by agar dilution method; assay type: functional
[10] = system: Campylobacter jejuni; assay: Antimicrobial activity against Campylobacter jejuni DC28 harboring protein L4 G74D mutant by agar dilution method; assay type: functional
[11] = system: Campylobacter jejuni; assay: Antimicrobial activity against Campylobacter jejuni DC5 harboring protein L4 G74D mutant by agar dilution method; assay type: functional
[12] = system: Campylobacter jejuni; assay: Antimicrobial activity against Campylobacter jejuni JL297 selected at 4 to 16 times MIC after 3 to 4 days by agar dilution method; assay type: functional
[13] = system: Campylobacter jejuni; assay: Antimicrobial activity against Campylobacter jejuni JL302 harboring protein L22 with insertion of amino acid TSH at position 98 selected at 4 to 16 times MIC after 3 to 4 days by agar dilution method; assay type: functional
[14] = system: Campylobacter jejuni; assay: Antimicrobial activity against Campylobacter jejuni JL290 harboring protein L22 with insertion of amino acid TSH at position 98 selected at 8 ug/ml after 3 to 4 days by agar dilution method; assay type: functional
[15] = system: Campylobacter jejuni; assay: Antimicrobial activity against Campylobacter jejuni DC36 harboring protein L4 G74D mutant by agar dilution method; assay type: functional
[16] = system: Campylobacter jejuni; assay: Antimicrobial activity against Campylobacter jejuni DC7 harboring protein L4 G74D mutant by agar dilution method; assay type: functional
[17] = system: Campylobacter jejuni; assay: Antimicrobial activity against Campylobacter jejuni DC29 by agar dilution method; assay type: functional
[18] = system: Campylobacter jejuni; assay: Antimicrobial activity against Campylobacter jejuni JL292 selected at 4 to 16 times MIC after 3 to 4 days by agar dilution method; assay type: functional
[19] = system: Campylobacter jejuni; assay: Antimicrobial activity against Campylobacter jejuni DC12 harboring protein L4 G74D mutant by agar dilution method; assay type: functional
[20] = system: Campylobacter jejuni; assay: Antimicrobial activity against Campylobacter jejuni DC27 harboring protein L4 G74D mutant by agar dilution method; assay type: functional
[21] = system: Campylobacter jejuni; assay: Antimicrobial activity against Campylobacter jejuni DC2 infected in 15 days old chicken by agar dilution method in presence of feed with tylosin; assay type: functional
[22] = system: Campylobacter jejuni; assay: Antimicrobial activity against Campylobacter jejuni JL295 selected at 2 ug/ml after 3 to 4 days by agar dilution method; assay type: functional
[23] = system: Campylobacter jejuni; assay: Antimicrobial activity against Campylobacter jejuni DC24 harboring protein L4 G74D mutant by agar dilution method; assay type: functional
[24] = system: Campylobacter jejuni; assay: Antimicrobial activity against Campylobacter jejuni DC11 by agar dilution method; assay type: functional
[25] = system: Campylobacter jejuni; assay: Antimicrobial activity against Campylobacter jejuni JL298 selected at 4 to 16 times MIC after 3 to 4 days by agar dilution method; assay type: functional
[26] = system: Campylobacter jejuni; assay: Antimicrobial activity against Campylobacter jejuni JL284 selected at 4 to 16 times MIC after 3 to 4 days by agar dilution method; assay type: functional
[27] = system: Campylobacter jejuni; assay: Antimicrobial activity against compound-resistant Campylobacter jejuni; assay type: functional
[28] = system: Campylobacter jejuni; assay: Antimicrobial activity against Campylobacter jejuni DC4 by agar dilution method; assay type: functional
[29] = system: Campylobacter jejuni; assay: Antimicrobial activity against Campylobacter jejuni DC2 harboring protein L4 G74D mutant by agar dilution method; assay type: functional
[30] = system: Campylobacter jejuni; assay: Antimicrobial activity against Campylobacter jejuni JL287 harboring 23S rRNA A2074C mutant selected at 4 to 16 times MIC after 3 to 4 days by agar dilution method; assay type: functional
[31] = system: Campylobacter jejuni; assay: Antimicrobial activity against Campylobacter jejuni JL296 selected at 4 to 16 times MIC after 3 to 4 days by agar dilution method; assay type: functional
[32] = system: Campylobacter jejuni; assay: Antimicrobial activity against Campylobacter jejuni harboring mutation in cmeB by agar dilution method relative to wild type Campylobacter jejuni; assay type: functional
[33] = system: Campylobacter jejuni; assay: Antimicrobial activity against Campylobacter jejuni DC1 by agar dilution method; assay type: functional
[34] = system: Campylobacter jejuni; assay: Antimicrobial activity against Campylobacter jejuni JL276 selected at 4 ug/ml after 3 to 4 days by agar dilution method; assay type: functional
[35] = system: Campylobacter jejuni; assay: Antimicrobial activity against Campylobacter jejuni DC26 harboring protein L4 G74D mutant by agar dilution method; assay type: functional
[36] = system: Campylobacter jejuni; assay: Antimicrobial activity against Campylobacter jejuni DC32 harboring 23S rRNA A2074G mutant by agar dilution method; assay type: functional
[37] = system: Campylobacter jejuni; assay: Antimicrobial activity against Campylobacter jejuni DC15 harboring protein L4 G74D mutant by agar dilution method; assay type: functional
[38] = system: Campylobacter jejuni; assay: Antimicrobial activity against Campylobacter jejuni DC10 harboring protein L4 G57D mutant by agar dilution method; assay type: functional

CC[C@H]1OC(=O)[C@H](C)[C@@H](O[C@H]2C[C@@](C)(OC)[C@@H](O)[C@H](C)O2)[C@H](C)[C@@H](O[C@@H]2O[C@H](C)C[C@H](N(C)C)[C@H]2O)[C@](C)(O)C[C@@H](C)C(=O)[C@H](C)[C@@H](O)[C@]1(C)O [ERYTHROMYCIN]
MIC [1]: > 512 µg/mL | MIC [2]: 64 µg/mL (≈ 87.2 µM) | MIC [3]: 1 µg/mL (≈ 1.36 µM) | MIC [4]: 128 µg/mL (≈ 174 µM) | MIC [5]: 128 µg/mL (≈ 174 µM) | MIC [6]: 32 µg/mL (≈ 43.6 µM) | MIC [7]: 256 µg/mL (≈ 349 µM) | MIC [8]: 32 µg/mL (≈ 43.6 µM) | MIC [9]: > 512 µg/mL | MIC [10]: 8 µg/mL (≈ 10.9 µM) | MIC [11]: 8 µg/mL (≈ 10.9 µM) | MIC [12]: 8 µg/mL (≈ 10.9 µM) | MIC [13]: 512 µg/mL (≈ 698 µM) | MIC [14]: 32 µg/mL (≈ 43.6 µM) | MIC [15]: 128 µg/mL (≈ 174 µM) | MIC [16]: 8 µg/mL (≈ 10.9 µM) | MIC [17]: 4 µg/mL (≈ 5.45 µM) | MIC [18]: 8 µg/mL (≈ 10.9 µM) | MIC [19]: 64 µg/mL (≈ 87.2 µM) | MIC [20]: 64 µg/mL (≈ 87.2 µM) | MIC [21]: 32 µg/mL | MIC [22]: 8 µg/mL (≈ 10.9 µM) | MIC [23]: 32 µg/mL (≈ 43.6 µM) | MIC [24]: 64 µg/mL (≈ 87.2 µM) | MIC [25]: 8 µg/mL (≈ 10.9 µM) | MIC [26]: 128 µg/mL (≈ 174 µM) | MIC [27]: 8 µg/mL (≈ 10.9 µM) | MIC [28]: 8 µg/mL (≈ 10.9 µM) | MIC [29]: 32 µg/mL (≈ 43.6 µM) | MIC [30]: > 512 µg/mL | MIC [31]: 8 µg/mL (≈ 10.9 µM) | fold change (FC) [32]: 8 | MIC [33]: 8 µg/mL (≈ 10.9 µM) | MIC [34]: 16 µg/mL (≈ 21.8 µM) | MIC [35]: 64 µg/mL (≈ 87.2 µM) | MIC [36]: > 512 µg/mL | MIC [37]: 32 µg/mL (≈ 43.6 µM) | MIC [38]: 16 µg/mL (≈ 21.8 µM)
